{
  "source": "PubChem BioAssay AID2060496",
  "about": "(Molecular Pharmacology Branch, DTP, NCI, 2025);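 also: spheroids exposed to drugs for seven days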;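 as to viability, T/C: 100% = DMSO vehicle control viability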",
  "system": "276233-004-R-J1-PDC complex spheroid viability",
  "test": "Anticancer human tumor 276233-004-R-J1-PDC patient-derived colon adenocarcinoma cell line growth inhibition [GQUAD]",
  "conditions": "for IC50: curve of first compound; for viability, T/C: stronger effect = lower value",
  "excerpt": "DNA G-quadruplex Stabilizer Agents in Combinations in Complex Spheroids\nA high-throughput screen of multi-cell type tumor spheroids was designed to identify active combinations of DNA G-quadruplex stabilizer agents and targeted small molecules. Complex spheroids include a stromal component modeled by human endothelial cells (HUVEC) and fibroblasts modeled by human mesenchymal stem cells (MSCs). The concentration ranges selected for each drug and investigational agent were based upon clinically achievable concentrations if the clinical Cmax of the agent was known.\nCompounds. The drugs and investigational agents: pidnarulex (CX-5461; NSC782164), APTO-253 (NSC789042), BRACO-19 (NSC847499), peposertib (NSC802822), ceralasertib (NSC780249), elimusertib (NSC800525), camonsertib (NSC841442), AZD-1390 (NSC803789), olaparib (NSC753686), talazoparib (NSC767125), ART-558 (NSC835418), sotorasib (NSC818433), MRTX-1133 (NSC836407), SN-38 (NSC673596), topotecan (NSC609699), etoposide (NSC141540), doxorubicin (NSC123127), gemcitabine (NSC613327), 5-fluorouracil (NSC19893), paclitaxel (NSC125973), vemurafenib (NSC761431), panobinostat (NSC761190), R-306465 (JNJ-16241199; NSC773264), adavosertib (NSC754352), TP-3654 (NSC805149), carboplatin (NSC241240), KSQ-4279 (NSC840948), and staurosporine (NSC755774) were obtained from the National Cancer Institute (NCI) Developmental Therapeutics Program Chemical Repository (34). The FDA-approved anticancer drug set is available from the NCI Developmental Therapeutics Program. […] The stock solutions were prepared in dimethyl sulfoxide (DMSO, Sigma-Aldrich, St. Louis, MO, cat. D2650) at 800-fold the tested concentration and stored at -70 degrees C prior to their use. All drugs and investigational agents were tested over a range starting from a high concentration at or near the clinical Cmax and decreasing in half-log increments. If the clinical Cmax for an agent had not been determined, the highest concentration tested was 10 microM.\n2.3 Cell Culture. All cells were maintained in an incubator at 37 degrees C and 5% CO2 with 95% humidity. The PDC lines were cultured according to standard operating procedures established by the NCI PDMR. All PDCs were thawed and cultured in Matrigel-coated flasks prepared with a working solution of 1X Ham's F-12 nutrient mix, without supplementation (Invitrogen, cat. 11765054), 100 U/mL penicillin-streptomycin (Invitrogen, cat. 15140122), and 2.5% Matrigel (Corning Inc., cat. 354248) for the first three passages. The 857933-349-R-J2-PDC line was cultured in 6C/Colon 1B media, which includes advanced DMEM/F-12 (Thermo Fisher Scientific, cat. 12634028), 10 mM HEPES (Thermo Fisher Scientific, cat. 15630080), 1X GlutaMAX supplement (Thermo Fisher Scientific, cat. 35050061), 0.1 mg/mL primocin (InvivoGen, cat. ant-pm-2), 10% defined fetal bovine serum, heat inactivated (HyClone Laboratories Inc., cat. SH30070.03HI), 50% L-WRN conditioned media (ATCC, cat. CRL-3276), 1.25 mM N-Acetyl-L-cysteine (Sigma-Aldrich, cat. A9165), 10 mM nicotinamide (Sigma-Aldrich, cat. N0636), 1X B-27 supplement (Thermo Fisher Scientific, cat. 17504044), 1X N-2 supplement (Thermo Fisher Scientific, cat. 17502048), 10 microM Y-27632 dihydrochloride (Tocris Bioscience, cat. 1254), and 50 ng/mL human EGF recombinant protein (Thermo Fisher Scientific, cat. PHG0311). The 485176-168-R4-J1-PDC line was cultured in Panc media, which includes all 6C/Colon 1B media components plus 100 ng/mL human FGF-10 (Thermo Fisher Scientific, cat. 100-26), 500 nM SB-431542 (Selleckchem, cat. S1067), and gastrin (Tocris, cat. 3006).\n[…]",
  "data": [
    {"smiles": "COc1cccc2c1C(=O)c1c(O)c3c(c(O)c1C2=O)CC(O)(C(=O)CO)CC3OC1CC(N)C(O)C(C)O1", "note": "(configuration not stated) + Cc1cnc(CNC(=O)c2c(=O)c3ccc(N4CCCN(C)CC4)nc3n3c2sc2ccccc23)cn1", "values": [
      {"measurement": "IC50", "setting": "second compound 0.0316 µM", "result": 9.69, "unit": "µM"},
      {"measurement": "IC50", "setting": "second compound 0.1 µM", "result": 6.82, "unit": "µM"},
      {"measurement": "IC50", "setting": "second compound 0.316 µM", "result": 3.53, "unit": "µM"},
      {"measurement": "IC50", "setting": "second compound 1 µM", "result": 2.33, "unit": "µM"},
      {"measurement": "IC50", "setting": "second compound 3.16 µM", "result": 2.16, "unit": "µM"},
      {"measurement": "IC50", "setting": "second compound 10 µM", "result": 2.03, "unit": "µM"},
      {"measurement": "viability, T/C", "setting": "second compound 0.0316 µM, first compound 0.0316 µM", "result": 81.5, "unit": "%"},
      {"measurement": "viability, T/C", "setting": "second compound 0.0316 µM, first compound 0.1 µM", "result": 87.3, "unit": "%"},
      {"measurement": "viability, T/C", "setting": "second compound 0.0316 µM, first compound 0.316 µM", "result": 86, "unit": "%"},
      {"measurement": "viability, T/C", "setting": "second compound 0.0316 µM, first compound 1 µM", "result": 67.1, "unit": "%"},
      {"measurement": "viability, T/C", "setting": "second compound 0.0316 µM, first compound 3.16 µM", "result": 79.6, "unit": "%"},
      {"measurement": "viability, T/C", "setting": "second compound 0.0316 µM, first compound 10 µM", "result": 48.6, "unit": "%"},
      {"measurement": "viability, T/C", "setting": "second compound 0.1 µM, first compound 0.0316 µM", "result": 79, "unit": "%"},
      {"measurement": "viability, T/C", "setting": "second compound 0.1 µM, first compound 0.1 µM", "result": 94.9, "unit": "%"},
      {"measurement": "viability, T/C", "setting": "second compound 0.1 µM, first compound 0.316 µM", "result": 72.2, "unit": "%"},
      {"measurement": "viability, T/C", "setting": "second compound 0.1 µM, first compound 1 µM", "result": 87.9, "unit": "%"},
      {"measurement": "viability, T/C", "setting": "second compound 0.1 µM, first compound 3.16 µM", "result": 66.3, "unit": "%"},
      {"measurement": "viability, T/C", "setting": "second compound 0.1 µM, first compound 10 µM", "result": 41.9, "unit": "%"},
      {"measurement": "viability, T/C", "setting": "second compound 0.316 µM, first compound 0.0316 µM", "result": 80.4, "unit": "%"},
      {"measurement": "viability, T/C", "setting": "second compound 0.316 µM, first compound 0.1 µM", "result": 92.3, "unit": "%"},
      {"measurement": "viability, T/C", "setting": "second compound 0.316 µM, first compound 0.316 µM", "result": 87.2, "unit": "%"},
      {"measurement": "viability, T/C", "setting": "second compound 0.316 µM, first compound 1 µM", "result": 78.3, "unit": "%"},
      {"measurement": "viability, T/C", "setting": "second compound 0.316 µM, first compound 3.16 µM", "result": 51.8, "unit": "%"},
      {"measurement": "viability, T/C", "setting": "second compound 0.316 µM, first compound 10 µM", "result": 35, "unit": "%"},
      {"measurement": "viability, T/C", "setting": "second compound 1 µM, first compound 0.0316 µM", "result": 78, "unit": "%"},
      {"measurement": "viability, T/C", "setting": "second compound 1 µM, first compound 0.1 µM", "result": 95.8, "unit": "%"},
      {"measurement": "viability, T/C", "setting": "second compound 1 µM, first compound 0.316 µM", "result": 83.1, "unit": "%"},
      {"measurement": "viability, T/C", "setting": "second compound 1 µM, first compound 1 µM", "result": 73, "unit": "%"},
      {"measurement": "viability, T/C", "setting": "second compound 1 µM, first compound 3.16 µM", "result": 41.8, "unit": "%"},
      {"measurement": "viability, T/C", "setting": "second compound 1 µM, first compound 10 µM", "result": 24.4, "unit": "%"},
      {"measurement": "viability, T/C", "setting": "second compound 3.16 µM, first compound 0.0316 µM", "result": 78.1, "unit": "%"},
      {"measurement": "viability, T/C", "setting": "second compound 3.16 µM, first compound 0.1 µM", "result": 78.8, "unit": "%"},
      {"measurement": "viability, T/C", "setting": "second compound 3.16 µM, first compound 0.316 µM", "result": 77.4, "unit": "%"},
      {"measurement": "viability, T/C", "setting": "second compound 3.16 µM, first compound 1 µM", "result": 60.4, "unit": "%"},
      {"measurement": "viability, T/C", "setting": "second compound 3.16 µM, first compound 3.16 µM", "result": 44.5, "unit": "%"},
      {"measurement": "viability, T/C", "setting": "second compound 3.16 µM, first compound 10 µM", "result": 13, "unit": "%"},
      {"measurement": "viability, T/C", "setting": "second compound 10 µM, first compound 0.0316 µM", "result": 73.2, "unit": "%"},
      {"measurement": "viability, T/C", "setting": "second compound 10 µM, first compound 0.1 µM", "result": 60.6, "unit": "%"},
      {"measurement": "viability, T/C", "setting": "second compound 10 µM, first compound 0.316 µM", "result": 64.5, "unit": "%"},
      {"measurement": "viability, T/C", "setting": "second compound 10 µM, first compound 1 µM", "result": 69, "unit": "%"},
      {"measurement": "viability, T/C", "setting": "second compound 10 µM, first compound 3.16 µM", "result": 39.4, "unit": "%"},
      {"measurement": "viability, T/C", "setting": "second compound 10 µM, first compound 10 µM", "result": 13.5, "unit": "%"}
    ]}
  ]
}
